Test results published in ChEMBL document CHEMBL4376865, “Discovery and Characterization of 1H-1,2,3-Triazole Derivatives as Novel Prostanoid EP4 Receptor Antagonists for Cancer Immunotherapy” (J Med Chem, 2020).

Assays:
[1] = biological target: T1, Prostaglandin E2 receptor EP4 subtype (Homo sapiens, UniProt P35408); assay: Inhibition of human EP4 transfected in human HEK293 cells co transfected with SmBit-beta-arrestin. assessed as reduction in PGE2 induced-beta-arrestin recruitment by NanoBiT beta-arrestin recruitment assay
[2] = in vitro; details: human, liver microsomes
[3] = biological target: T1, Prostaglandin E2 receptor EP4 subtype; assay: Inhibition of human EP4 transfected in human HEK293 cells co transfected with CRE-luciferase assessed as reduction in PGE2-induced luciferase expression incubated for 24 hrs by luciferase reporter gene Assay
[4] = Half life in BALB/c mouse at 5 mg/kg, po measured upto 24 hrs by LC-MS/MS analysis; details: in vivo
[5] = in vitro; details: CD1, mouse, liver microsomes
[6] = biological target: T2, Prostaglandin E2 receptor EP3 subtype (Homo sapiens, UniProt P43115)
T2 sequence (P43115 whole entry): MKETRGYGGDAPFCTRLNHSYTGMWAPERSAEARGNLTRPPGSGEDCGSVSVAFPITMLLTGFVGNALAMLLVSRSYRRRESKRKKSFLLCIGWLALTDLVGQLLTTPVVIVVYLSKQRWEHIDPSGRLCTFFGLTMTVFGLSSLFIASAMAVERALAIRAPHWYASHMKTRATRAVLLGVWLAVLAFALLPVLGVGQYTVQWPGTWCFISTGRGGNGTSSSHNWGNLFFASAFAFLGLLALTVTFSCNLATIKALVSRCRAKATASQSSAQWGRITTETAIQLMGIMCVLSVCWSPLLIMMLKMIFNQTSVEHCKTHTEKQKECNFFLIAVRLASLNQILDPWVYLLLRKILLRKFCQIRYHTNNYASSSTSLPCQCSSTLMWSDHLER
Description: Antagonist activity at human EP3 expressed in CHO cells coexpressing G16-alpha assessed as intracellular calcium flux preincubated for 15 mins followed by addition of PGE2 by calcium flux assay

[7] = Metabolic stability in human liver microsomes assessed as compound remaining at 10 uM incubated for 1 hr
[8] = Half life in BALB/c mouse at 1 mg/kg, iv measured upto 24 hrs by LC-MS/MS analysis; details: in vivo
[9] = system: CT26; assay: Antitumor activity against mouse CT26 cells xenografted in BALB/c mouse assessed as tumor growth inhibition at 16 mg/kg, po administerd daily and measured after two weeks; details: 336 h, read-out: TGI
[10] = system: CT26; assay: Antitumor activity against mouse CT26 cells xenografted in BALB/c mouse assessed as tumor growth inhibition at 150 mg/kg, po administerd daily and measured after two weeks; details: 336 h, read-out: TGI
[11] = biological target: T3, CYP1A2 (Homo sapiens, UniProt P05177); assay: Inhibition of CYP1A2 in human liver microsomes at 20 uM using phenacetin as substrate incubated for 30 mins by HPLC analysis relative to control; assay type: ADME; details: probe phenacetin
T3 sequence (P05177 whole entry): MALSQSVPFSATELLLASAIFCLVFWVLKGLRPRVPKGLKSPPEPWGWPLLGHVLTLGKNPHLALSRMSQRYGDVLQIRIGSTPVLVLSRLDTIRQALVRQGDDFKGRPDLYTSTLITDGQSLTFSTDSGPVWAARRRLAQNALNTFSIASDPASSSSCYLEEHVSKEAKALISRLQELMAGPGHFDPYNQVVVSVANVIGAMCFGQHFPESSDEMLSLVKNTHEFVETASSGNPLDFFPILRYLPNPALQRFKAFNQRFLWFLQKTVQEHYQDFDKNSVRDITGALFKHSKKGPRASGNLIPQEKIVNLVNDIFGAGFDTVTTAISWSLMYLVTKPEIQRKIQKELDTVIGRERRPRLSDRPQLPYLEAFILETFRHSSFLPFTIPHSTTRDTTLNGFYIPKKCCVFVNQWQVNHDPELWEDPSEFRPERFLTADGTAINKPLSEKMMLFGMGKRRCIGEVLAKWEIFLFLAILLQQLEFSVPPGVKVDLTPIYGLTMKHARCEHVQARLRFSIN

[12] = biological target: Prostaglandin E2 receptor EP2 subtype (Homo sapiens, UniProt P43116)
Description: Antagonist activity at human EP2 expressed in CHO cells coexpressing G16-alpha assessed as intracellular calcium flux preincubated for 15 mins followed by addition of PGE2 by calcium flux assay

[13] = Volume of distribution at steady state in BALB/c mouse at 1 mg/kg, iv measured upto 24 hrs by LC-MS/MS analysis; details: in vivo
[14] = in vitro; details: human, liver microsomes; remark: listed apart in the source
[15] = biological target: CYP2C9 (Homo sapiens, UniProt P11712); assay: Inhibition of CYP2C9 in human liver microsomes at 20 uM using tolbutamide as substrate incubated for 60 mins by HPLC analysis relative to control; assay type: ADME; details: probe tolbutamide
[16] = biological target: CYP2E1 (Homo sapiens, UniProt P05181); assay: Inhibition of CYP2E1 in human liver microsomes at 20 uM using chlorzoxazone as substrate incubated for 60 mins by HPLC analysis relative to control; assay type: ADME; details: probe chlorzoxazone
[17] = in vitro; details: CD1, mouse, liver microsomes; remark: listed apart in the source
[18] = system: CT26; assay: Antitumor activity against mouse CT26 cells xenografted in BALB/c mouse assessed as tumor growth inhibition at 50 mg/kg, po administerd daily and measured after two weeks; details: 336 h, read-out: TGI
[19] = in vivo; details: BALB/c, mouse, iv, 1 mg/kg
[20] = Clearance in BALB/c mouse at 1 mg/kg, iv measured upto 24 hrs by LC-MS/MS analysis; details: in vivo
[21] = Metabolic stability in CD1 mouse liver microsomes assessed as compound remaining at 10 uM incubated for 1 hr
[22] = biological target: T4, Prostaglandin E2 receptor EP1 subtype (Homo sapiens, UniProt P34995); assay: Antagonist activity at human EP1 expressed in CHO cells coexpressing G16-alpha assessed as intracellular calcium flux preincubated for 15 mins followed by addition of PGE2 by calcium flux assay; assay type: functional, cell-based
T4 sequence (P34995 whole entry): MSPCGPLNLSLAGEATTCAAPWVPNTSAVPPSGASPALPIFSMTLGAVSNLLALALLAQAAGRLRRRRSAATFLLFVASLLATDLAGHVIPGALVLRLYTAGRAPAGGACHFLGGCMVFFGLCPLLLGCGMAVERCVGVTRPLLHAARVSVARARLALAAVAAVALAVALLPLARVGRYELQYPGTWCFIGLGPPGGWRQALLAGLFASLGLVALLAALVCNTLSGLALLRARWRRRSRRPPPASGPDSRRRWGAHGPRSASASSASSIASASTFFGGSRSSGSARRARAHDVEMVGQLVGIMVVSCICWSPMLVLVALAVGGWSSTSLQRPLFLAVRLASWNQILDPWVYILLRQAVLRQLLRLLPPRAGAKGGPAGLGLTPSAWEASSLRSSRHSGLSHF

[23] = in vivo; details: BALB/c, mouse, po, 5 mg/kg
Description: Oral bioavailability in BALB/c mouse at 5 mg/kg measured upto 24 hrs by LC-MS/MS analysis

[24] = biological target: T1, Prostaglandin E2 receptor EP4 subtype
Description: Antagonist activity at human EP4 expressed in CHO cells coexpressing G16-alpha assessed as intracellular calcium flux preincubated for 15 mins followed by addition of PGE2 by calcium flux assay

[25] = biological target: Cytochrome P450 3A4 (Homo sapiens, UniProt P08684); assay: Inhibition of CYP3A4 in human liver microsomes at 20 uM using testosterone as substrate incubated for 60 mins by HPLC analysis; assay type: ADME; details: 1 h
[26] = in vivo; details: BALB/c, mouse, po, 5 mg/kg; remark: listed apart in the source
Description: AUC (0 to infinity) in BALB/c mouse at 5 mg/kg, po measured upto 24 hrs by LC-MS/MS analysis

T1 sequence (P35408 whole entry): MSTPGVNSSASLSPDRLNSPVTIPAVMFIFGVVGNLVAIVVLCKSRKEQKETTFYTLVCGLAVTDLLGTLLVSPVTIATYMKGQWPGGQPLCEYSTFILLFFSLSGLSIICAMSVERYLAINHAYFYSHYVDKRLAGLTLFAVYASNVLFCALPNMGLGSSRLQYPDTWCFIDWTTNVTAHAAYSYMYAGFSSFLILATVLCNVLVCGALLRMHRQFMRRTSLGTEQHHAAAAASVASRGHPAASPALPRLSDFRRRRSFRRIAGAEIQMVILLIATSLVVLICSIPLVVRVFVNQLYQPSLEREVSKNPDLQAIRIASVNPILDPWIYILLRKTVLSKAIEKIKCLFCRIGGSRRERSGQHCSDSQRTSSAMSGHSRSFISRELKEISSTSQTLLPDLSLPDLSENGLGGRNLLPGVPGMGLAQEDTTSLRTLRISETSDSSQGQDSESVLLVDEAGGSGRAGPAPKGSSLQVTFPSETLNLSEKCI
CYP2C9, sequence (P11712 whole entry): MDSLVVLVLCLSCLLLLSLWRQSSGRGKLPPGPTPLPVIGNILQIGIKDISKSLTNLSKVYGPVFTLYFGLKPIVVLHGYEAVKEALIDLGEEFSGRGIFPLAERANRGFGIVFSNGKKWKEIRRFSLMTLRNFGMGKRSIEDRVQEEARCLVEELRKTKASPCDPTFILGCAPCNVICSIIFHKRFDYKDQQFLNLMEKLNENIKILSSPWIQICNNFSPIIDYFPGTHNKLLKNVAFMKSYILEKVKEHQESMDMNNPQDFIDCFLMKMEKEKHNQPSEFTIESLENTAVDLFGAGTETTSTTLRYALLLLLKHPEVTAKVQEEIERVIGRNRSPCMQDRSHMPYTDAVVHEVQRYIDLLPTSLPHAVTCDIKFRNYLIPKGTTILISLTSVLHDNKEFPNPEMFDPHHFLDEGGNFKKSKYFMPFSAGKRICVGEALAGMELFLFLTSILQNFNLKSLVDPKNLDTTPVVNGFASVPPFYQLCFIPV
CYP2E1, sequence (P05181 whole entry): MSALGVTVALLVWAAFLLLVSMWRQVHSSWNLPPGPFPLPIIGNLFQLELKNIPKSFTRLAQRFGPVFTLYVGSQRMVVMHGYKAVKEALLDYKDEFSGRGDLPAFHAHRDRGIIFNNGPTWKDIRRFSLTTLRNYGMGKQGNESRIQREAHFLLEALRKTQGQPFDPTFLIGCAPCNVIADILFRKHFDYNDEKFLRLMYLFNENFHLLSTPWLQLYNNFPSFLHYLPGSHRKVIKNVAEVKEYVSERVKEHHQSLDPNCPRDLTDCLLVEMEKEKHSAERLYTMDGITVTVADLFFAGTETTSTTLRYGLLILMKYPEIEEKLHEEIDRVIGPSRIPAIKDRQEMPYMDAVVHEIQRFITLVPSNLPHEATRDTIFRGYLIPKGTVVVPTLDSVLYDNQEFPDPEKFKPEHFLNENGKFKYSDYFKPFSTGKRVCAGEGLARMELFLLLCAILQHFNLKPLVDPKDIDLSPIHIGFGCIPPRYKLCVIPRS
Cytochrome P450 3A4, sequence (P08684 whole entry): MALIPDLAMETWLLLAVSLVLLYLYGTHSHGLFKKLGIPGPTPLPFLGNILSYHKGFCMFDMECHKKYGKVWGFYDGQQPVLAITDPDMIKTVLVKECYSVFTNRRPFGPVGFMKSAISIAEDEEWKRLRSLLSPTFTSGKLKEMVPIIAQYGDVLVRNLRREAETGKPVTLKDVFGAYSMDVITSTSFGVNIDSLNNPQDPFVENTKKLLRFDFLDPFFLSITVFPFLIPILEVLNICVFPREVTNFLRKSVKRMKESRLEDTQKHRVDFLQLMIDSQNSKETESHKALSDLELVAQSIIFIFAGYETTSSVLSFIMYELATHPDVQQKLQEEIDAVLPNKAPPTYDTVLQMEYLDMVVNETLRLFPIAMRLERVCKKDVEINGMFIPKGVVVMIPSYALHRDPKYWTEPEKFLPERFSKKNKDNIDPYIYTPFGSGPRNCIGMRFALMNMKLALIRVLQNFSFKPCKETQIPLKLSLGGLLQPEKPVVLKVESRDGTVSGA
Prostaglandin E2 receptor EP2 subtype, sequence (P43116 whole entry): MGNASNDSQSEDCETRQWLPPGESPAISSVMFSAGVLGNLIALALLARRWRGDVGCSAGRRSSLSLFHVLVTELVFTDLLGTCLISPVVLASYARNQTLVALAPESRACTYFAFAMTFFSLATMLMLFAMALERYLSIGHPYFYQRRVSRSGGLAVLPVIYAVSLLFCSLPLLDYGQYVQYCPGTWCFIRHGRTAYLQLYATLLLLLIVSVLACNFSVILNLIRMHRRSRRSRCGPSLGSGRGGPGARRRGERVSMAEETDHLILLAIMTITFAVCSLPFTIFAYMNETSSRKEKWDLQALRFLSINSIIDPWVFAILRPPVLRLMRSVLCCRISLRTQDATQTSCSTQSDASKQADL

IC50 [1]: 0.4 nM | microsomal CLint at 1 h, 10 µM [2]: < 9.6 µL/min/mg | IC50 [3]: 5.2 nM | half-life at 24 h [4]: 4.7 h | microsomal CLint at 1 h, 10 µM [5]: < 9.6 µL/min/mg | IC50 [6]: > 10000 nM | remaining at 1 h, 10 µM [7]: 100% | half-life at 24 h [8]: 4.1 h | inhibition at 0.5 h, 20 µM [11]: 27% | IC50 [12]: > 10000 nM | Vd at 24 h [13]: 4.4 L/kg | half-life at 1 h, 10 µM [14]: > 2.42 h | inhibition at 1 h, 20 µM [15]: 33% | inhibition at 1 h, 20 µM [16]: 66% | half-life at 1 h, 10 µM [17]: > 2.42 h | Cmax at 24 h [19]: 1.2 µg/mL | clearance at 24 h [20]: 1.7 L/h/kg | remaining at 1 h, 10 µM [21]: 82% | IC50 [22]: > 10000 nM | bioavailability at 24 h [23]: 48% | IC50 [24]: 6.1 nM | inhibition (INH) [25]: Not Active | AUC(0-inf) at 24 h [26]: 1.24 µg·h/mL
Compound: C/C=C/c1nnn(Cc2ccc(C(F)(F)F)cc2)c1C(=O)N[C@@H](C)c1ccc(C(=O)O)cc1
inhibition in vivo at 16 mg/kg [9]: 24.6% | inhibition in vivo at 150 mg/kg [10]: 63.8% | inhibition in vivo at 50 mg/kg [18]: 54.7%
